Assay results published in article PMC5943930, “Identification of Inhibitors Targeting Ferredoxin-NADP^+ Reductase from the Xanthomonas citri subsp. citri Phytopathogenic Bacteria” (Molecules : A Journal of Synthetic Chemistry and Natural …, 2017).
Read-outs that look alike come from different tables or passages of the source.

Key:
[1] = system: Xcc; assay: Xcc growth inhibition on SB-agar plates; assay type: cell-based, Xanthomonas citri subsp. citri; settings: 24 h at 28 °C
Procedure: (§1) To evaluate the sensitivity of Xcc to C5, C12, C17 and C19, 100 µL of a bacterial suspension (containing ~10^9 cells mL^−1) were mixed with 4 mL of SB medium (5 g L^−1 sucrose, 5 g L^−1 yeast extract, 5 g L^−1 peptone, and 1 g L^−1 glutamic acid, pH 7.0) and 0.7% (w v^−1) molten agar and poured onto SB-1.5% (w v^−1) agar plates supplemented with 25 µg mL^−1 ampicillin. After hardening, 2 µL of a 10, 100 and 1000 µM solution of each compound were added onto the agar surface. The zones of growth inhibition were photographed after incubation for 24 h at 28 °C. To assess the compound inhibition effect on Xcc growth in liquid medium, overnight cultures were subcultured into fresh SB medium at 2% inoculums and grown for 6 h in the presence of 1 mM C12. Samples were removed at 0, 2, 4 and 6 h, serially diluted and plated on SB-1.5% (w v^−1) agar. Colonies were counted after 48 h of incubation at 28 °C.

[2] = molecular target: T1, XccFPR (Xanthomonas citri pv. citri, UniProt A0AAI7ZED9); assay: NADPH-dependent DCPIP diaphorase activity of XccFPR, dose-response of inhibitors; assay type: biochemical, Xanthomonas citri subsp. citri; settings: for inhibitory effect on XccFPR (in words): C12 derived compounds D1–D8
T1 sequence (A0AAI7ZED9 1-259): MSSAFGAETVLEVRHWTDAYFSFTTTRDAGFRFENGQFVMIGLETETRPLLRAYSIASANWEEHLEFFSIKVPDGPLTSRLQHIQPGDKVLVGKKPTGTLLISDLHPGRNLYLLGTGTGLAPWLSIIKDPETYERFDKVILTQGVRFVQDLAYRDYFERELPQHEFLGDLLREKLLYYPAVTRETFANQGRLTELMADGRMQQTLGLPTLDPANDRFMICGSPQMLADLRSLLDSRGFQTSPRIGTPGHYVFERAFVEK
Procedure: (§2) When assayed in regular cuvettes, the DCPIP diaphorase activity of XccFPR was determined at 25 °C using a Cary 100 (Agilent Technologies Inc., Santa Clara, CA, USA) spectrophotometer as previously established. […] Positive controls (without any hit compound) were included in every reaction set. […] The DMSO concentration was kept at 2% in all samples. All kinetic experiments were performed in triplicate. The effect of the inhibitors on Km and kcat was determined by fitting the datasets to the Michaelis-Menten model. Additionally, data were globally fit to either Lineweaver-Burk equations for uncompetitive or non-competitive inhibition, yielding Ki for each compound (Equations (1) and (2), respectively).

[3] = molecular target: T1, XccFPR; assay: Inhibition constants and mechanisms, XccFPR diaphorase activity as a function of NADPH at increasing inhibitor concentrations; assay type: biochemical, Xanthomonas citri subsp. citri; settings: 25 °C, 50 mM Tris/HCl, 2% DMSO, pH 8.0; for Ki: global fit to Lineweaver–Burk inhibition model; for Inhibition Mechanism: versus NADPH
Procedure: as §2
(1) [e]/V0=(1+[I]/K^′i)/kcat+Km/kcat·1/[S]
(2) [e]/V0=(1+[I]/Ki)/kcat+(1+[I]/Ki)·Km/kcat·1/[S]

[4] = system: Xcc; assay: Xcc growth/viability in liquid SB medium (colony-forming capacity); assay type: cell-based, Xanthomonas citri subsp. citri; settings: 1 mM compound, 28 °C, 0–6 h, control 2% DMSO
Procedure: as §1

[5] = molecular target: T1, XccFPR; assay: Thermal stability of XccFPR, midpoint temperature for flavin release (TmFAD); assay type: binding, Xanthomonas citri subsp. citri; settings: 4 µM XccFPR
From the text: The increase in fluorescence of the FAD cofactor when dissociated from the protein upon thermal unfolding was used to evaluate XccFPR stability under different conditions and to assess related midpoint temperature for flavin release (TmFAD). Fluorescence thermal denaturation curves were monitored on 96-well plates using a Stratagene Mx3005P qPCR detection system (Agilent Technologies Inc., Santa Clara, CA, USA). A FAM filter set (λexc = 492 nm; λem = 516 nm), which overlaps the fluorescence spectrum of the isoalloxazine ring was used to evaluate XccFPR midpoint temperature for flavin release (TmFAD) when free or in the presence of selected compounds. Measurements were performed using 4 µM protein in 50 mM Tris/HCl, pH 8.0 in a 100 µL final volume. Each measurement was done in triplicate.

[6] = molecular target: T2, AnFNR (Nostoc sp., UniProt P21890); assay: NADPH-dependent DCPIP diaphorase activity of AnFNR, dose-response of inhibitors; assay type: biochemical, Anabaena PCC 7119; settings: 95 µM DCPIP, 50 μM NADPH; for IC50 / ICmax (concentration causing maximal inhibition): 25 °C, 2% DMSO, pH 8.0, 4 nM AnFNR; for IC50: 50 mM Tris/HCl, compound 0–800 μM; for % Inhibition at ICmax: 4 nM AnFNR
T2 construct: made in house; host or cells: Escherichia coli
T2 sequence (P21890 138-440 limits assumed): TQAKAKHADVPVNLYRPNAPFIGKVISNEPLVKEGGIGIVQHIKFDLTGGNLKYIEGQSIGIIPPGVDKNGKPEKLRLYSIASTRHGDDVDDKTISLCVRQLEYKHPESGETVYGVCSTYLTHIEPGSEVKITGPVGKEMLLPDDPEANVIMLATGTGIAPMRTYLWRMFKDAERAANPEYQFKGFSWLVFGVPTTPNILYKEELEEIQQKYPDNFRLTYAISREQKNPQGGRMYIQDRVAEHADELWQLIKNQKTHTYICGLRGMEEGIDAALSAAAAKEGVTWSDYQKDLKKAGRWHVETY
Procedure: We finally assessed the selectivity of our XccFPR inhibitors by testing the diaphorase activity of the plastidic Anabaena PCC 7119 FNR (AnFNR) at increasing concentrations of D2, D5 and D8 (Table 3).
as §2

[7] = molecular target: T1, XccFPR; assay: Steady-state kinetic parameters of XccFPR NADPH-dependent DCPIP diaphorase activity; assay type: biochemical, Xanthomonas citri subsp. citri
Procedure: When assayed in regular cuvettes, the DCPIP diaphorase activity of XccFPR was determined at 25 °C using a Cary 100 (Agilent Technologies Inc., Santa Clara, CA, USA) spectrophotometer as previously established. […] Positive controls (without any hit compound) were included in every reaction set. […] All kinetic experiments were performed in triplicate. The effect of the inhibitors on Km and kcat was determined by fitting the datasets to the Michaelis-Menten model. Additionally, data were globally fit to either Lineweaver-Burk equations for uncompetitive or non-competitive inhibition, yielding Ki for each compound (Equations (1) and (2), respectively).

[8] = molecular target: T1, XccFPR; settings: ferricyanide as electron acceptor; cited from earlier work
[9] = 25 °C, 2% DMSO, pH 8.0, 20 nM XccFPR, 95 µM DCPIP, 50 μM NADPH
[10] = compound 2 mM, NADP+ 50 µM, DMSO 2 %
[11] = compound 1 mM, NADP+ 50 µM, DMSO 2 %

## CSc1sc(NC(=O)Nc2ccc(F)c(Cl)c2)c(-c2ccc(Cl)cc2)c1C#N [C12, 1-(3-chloro-4-fluorophenyl)-3-[3-(4-chlorophenyl)-4-cyano-5-(methylsulfanyl)thiophen-2-yl]urea]
[1]; 2 µL of 10, 100 and 1000 µM solutions
  Xcc growth inhibition on solid SB medium: inhibited Xcc growth at all concentrations assayed
[1]; solid SB medium
  lowest concentration assayed that inhibited Xcc growth: 10 µM
[2]
  IC50: 7.7 ± 1 µM
[3]
  Ki: 4.2 ± 0.9 µM
  Inhibition Mechanism: Non-competitive
[4]
  growth inhibition in liquid medium (bacterial viability): decrease of bacterial viability

## CSc1sc(NC(=O)Nc2cccc(C(F)(F)F)c2)cc1C#N [D2]
[2]; 25 °C, 50 mM Tris/HCl, 2% DMSO, pH 8.0, 20 nM XccFPR, 95 µM DCPIP, 50 μM NADPH
  ICmax (concentration causing maximal inhibition): 175 ± 1 µM
[2]; 25 °C, 50 mM Tris/HCl, 2% DMSO, pH 8.0, 20 nM XccFPR, 95 µM DCPIP, 50 μM NADPH, compound 0–800 μM
  IC50: 26 ± 1 µM
[2]
  inhibitory effect on XccFPR (in words): moderate IC50 but high concentrations were required to abolish XccFPR activity
[2]; [9]
  % Inhibition at ICmax: 100 ± 1%
[5]; compound 2 mM, DMSO 2 %
  TmFAD: 41.7 ± 0.1 °C
  ΔTmFAD: 0.7±0.2 °C
[5]; [10]
  TmFAD: 46.0 ± 0.1 °C
  ΔTmFAD: 5.0±0.2 °C
[3]
  Ki: 28 ± 2 µM
  Inhibition Mechanism: uncompetitive inhibitor
[6]
  IC50: 27 ± 1 µM
  ICmax (concentration causing maximal inhibition): 100 ± 2 µM
  % Inhibition at ICmax: 99 ± 11%

## O=C(Nc1ccc(Cl)cc1)Nc1nnc(SCc2ccc(Cl)cc2)s1 [D5, 1-[5-(4-Chloro-benzylsulfanyl)-[1,3,4]thiadiazol-2-yl]-3-(4-chloro-phenyl)-urea]
[2]
  IC50: 6.6 ± 1.1 µM
[2]; [9]
  % Inhibition at ICmax: 100 ± 2%
[5]; compound 1 mM, DMSO 2 %
  TmFAD: 41.4 ± 0.1 °C
  ΔTmFAD: 0.4±0.2 °C
[5]; [11]
  TmFAD: 46.9 ± 0.1 °C
  ΔTmFAD: 5.9±0.2 °C
[3]
  Ki: 4.3 ± 1.1 µM
  Inhibition Mechanism: Non-competitive
[6]
  IC50: 102 ± 1 µM
  ICmax (concentration causing maximal inhibition): >300 µM
  % Inhibition at ICmax: ~47%

## Cc1c(S(=O)(=O)c2ccc(Cl)cc2)csc1C(=O)Nc1ccc(F)cc1F [D8, 4-(4-chlorobenzenesulfonyl)-N-(2,4-difluorophenyl)-3-methylthiophene-2-carboxamide]
[2]
  IC50: 38 ± 1 µM
  inhibitory effect on XccFPR (in words): moderate IC50 but high concentrations were required to abolish XccFPR activity
[2]; [9]
  % Inhibition at ICmax: 100 ± 1%
[3]
  Ki: 62 ± 19 µM
  Inhibition Mechanism: Non-competitive
[6]
  IC50: 122 ± 1 µM
  ICmax (concentration causing maximal inhibition): >350 µM
  % Inhibition at ICmax: ~73%

## C[S+](C)[O-] [DMSO]
[5]; DMSO 2 %
  ΔTmFAD: -0.4±0.2 °C
[5]; DMSO 2 %, 50 mM Tris/HCl
  TmFAD: 40.6 ± 0.1 °C
[5]; DMSO 5 %
  TmFAD: 39.0 ± 0.1 °C
[5]; DMSO 10 %
  TmFAD: 37.7 ± 0.1 °C
[7]; DMSO below 3%
  effect of solvent on XccFPR enzyme activity: did not modify the kinetic parameters
[7]; DMSO percentages larger than 3%
  effect of solvent on XccFPR enzyme activity: decreased the maximal rate constant

## NC(=O)C1=CN([C@@H]2O[C@H](COP(=O)(O)OP(=O)(O)OC[C@H]3O[C@@H](n4cnc5c(N)ncnc54)[C@H](OP(=O)(O)O)[C@@H]3O)[C@@H](O)[C@H]2O)C=CC1 [NADPH, reference compound]
[8]
  kcat: 122 ± 18 s⁻¹
[7]; NADPH-dependent DCPIP diaphorase activity, 25 °C, pH 8.0
  kcat: 22.6 ± 2.3 s⁻¹
[7]; read-out: Km^NADPH, DCPIP as electron acceptor, 25 °C, pH 8.0
  Km: 6.6 ± 1.1 µM

## NC(=O)c1ccc[n+]([C@@H]2O[C@H](COP(=O)([O-])OP(=O)(O)OC[C@H]3O[C@@H](n4cnc5c(N)ncnc54)[C@H](OP(=O)(O)O)[C@@H]3O)[C@@H](O)[C@H]2O)c1 [NADP^+]
[5]; NADP+ 50 µM, DMSO 2 %
  TmFAD: 46.7 ± 0.1 °C
  ΔTmFAD: 5.7±0.2 °C
[5]; NADP+ 50 µM, no DMSO
  TmFAD: 47.2 ± 0.1 °C
  ΔTmFAD: 6.2±0.2 °C
